What was measured:
PGF synthase (PGFS) = biological target: T1, PGF synthase (PGFS) (Homo sapiens, UniProt P42330); assay: Test on PGF synthase (spectrophotometric, 9,10-phenanthrenequinone/β-NADPH, 340 nm); format: biochemical; conditions: concentration that inhibits 50% of the enzymatic activity of PGF synthase
T1 construct: made in house
T1 sequence (P42330 1-323): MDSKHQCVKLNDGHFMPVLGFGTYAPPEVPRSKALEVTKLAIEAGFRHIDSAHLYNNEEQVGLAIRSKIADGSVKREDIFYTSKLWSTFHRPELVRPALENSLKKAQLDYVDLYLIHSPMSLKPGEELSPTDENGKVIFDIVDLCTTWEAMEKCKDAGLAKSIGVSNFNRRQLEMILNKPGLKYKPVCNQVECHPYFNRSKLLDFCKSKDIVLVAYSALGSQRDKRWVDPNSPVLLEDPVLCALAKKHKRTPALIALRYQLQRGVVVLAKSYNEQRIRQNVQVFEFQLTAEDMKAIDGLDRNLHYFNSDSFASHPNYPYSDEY
Protocol: The enzyme PGFS is obtained as described in document FR-A-02/05067, at a concentration of 0.5 mg/ml, as a suspension in a suitable medium, and blocked at −80° C. For the purposes of the test, this suspension is thawed and stored in ice.
In parallel, a 100 mM, pH 6.5 Tris buffer containing 20 μM of 9,10-phenanthrenequinone* (P2896, Sigma-Aldrich, L'isle D'Abeau Chesne, BP 701, 38297, Saint Quentin Fallavier) and 100 μM of β-NADPH (N1630, Sigma-Aldrich, L'isle D'Abeau Chesne, BP 701, 38297, Saint Quentin Fallavier) is prepared in a brown flask (protected from light).
*A stock solution with a titre of 1 mM is prepared in absolute ethanol and brought to 40° C.; the flask is placed in an ultrasound cuvette to facilitate the dissolution of the product.
(§1) 0.950 ml of this buffer (brought to 37° C. beforehand) is introduced into the cuvette of a spectrophotometer (Perkin-Elmer, Lambda 2) thermostatically maintained at 37° C., the measuring wavelength of which is set at 340 nm. 0.05 ml of enzymatic suspension at 37° C. is introduced into the cuvette concomitantly with the recording (corresponding to a reduction in the optical density at 340 nm). The maximum reaction rate is recorded.
The test values (containing compound (I)) are compared with the control value (without compound (I)); the results indicated represent the percentage of inhibition of PGFS at a concentration of 50 μM.

15-PGDH = biological target: T2, 15-PGDH (Homo sapiens, UniProt P15428); assay: Test on 15-PGDH (spectrophotometric, PGE2/β-NAD, 340 nm); format: biochemical
T2 construct: made in house
T2 sequence (P15428 1-266): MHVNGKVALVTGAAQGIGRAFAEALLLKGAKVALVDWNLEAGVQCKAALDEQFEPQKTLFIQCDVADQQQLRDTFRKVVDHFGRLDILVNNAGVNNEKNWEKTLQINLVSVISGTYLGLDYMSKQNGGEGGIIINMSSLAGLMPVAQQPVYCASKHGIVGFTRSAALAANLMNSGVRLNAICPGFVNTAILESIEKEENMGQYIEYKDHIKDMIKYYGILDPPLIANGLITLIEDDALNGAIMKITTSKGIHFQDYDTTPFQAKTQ
Protocol: The enzyme 15-PGDH is obtained as described in patent application FR 02/05067 filed in the name of L'Oréal, as a suspension in a medium adjusted to a concentration of 0.3 mg/ml and then blocked at −80° C. For the purposes of the test, this suspension is thawed and stored in ice.
In parallel, a 100 mM, pH 7.4 Tris buffer containing 0.1 mM of dithiothreitol (D5545, Sigma-Aldrich, L'isle D'Abeau Chesne, BP 701, 38297, Saint Quentin Fallavier), 1.5 mM of β-NAD (N6522, Sigma-Aldrich, L'isle D'Abeau Chesne, BP 701, 38297, Saint Quentin Fallavier), and 50 μM of prostaglandin E2 (P4172, Sigma-Aldrich, L'isle D'Abeau Chesne, BP 701, 38297, Saint Quentin Fallavier) is prepared.
as §1, with “0.965” for “0.950”, “0.035” for “0.05”, “an increase” for “a reduction”

COc1ccc(-n2ncc(C(=O)N3CCN(C)CC3)c2C)cc1 [Compound 2]
IC50 (PGF synthase (PGFS)): > 75 µM
Selectivity (15-PGDH; IC50fs/IC50dh ratio (PGF synthase vs 15-PGDH)): >7.5
IC50 (15-PGDH; concentration that inhibits 50% of the enzymatic activity of 15-PGDH): 10 µM
